Results on one compound are retold here after US8703769B2, “Use of EGFR inhibitors to prevent or treat obesity” (The University of North Carolina at Chapel Hill, priority 2005, dated 2014).

Format in all cases: in vivo
Experiment [1] addresses T1, EGFR (Mus musculus, UniProt Q01279).
T1 construct: from tissue; host or cells: whole animal: wild-type C57BL/6J male mice
The experiment can be described thus: High fat diet with or without AG1478 for about 1 month, C57BL/6 male mice (Example 2). The settings on record: for accumulation of adipose tissue (percent body fat by DEXA): C57BL/6 male mice, HFD + AG1478 (144 ppm in diet) vs HFD alone, FIGS. 9-12. On the procedure: (§1) Diets: A base Western Diet (D12079B, Research Diets, Inc., New Brunswick, N.J., U.S.A.) having 41% fat (kcal) was used in all studies, and is designated HFD. The small molecule inhibitor AG1478 (LC Laboratories, Woburn, Mass., U.S.A.) was added to this base diet to a final concentration of […]. This diet is designated HFD+INH.
(§2) In experiments using wild-type C57BL6/J (B6) mice, male mice were housed individually and were started on the diet experiments at 8 weeks of age. In Example 2, mice were maintained on the HFD or HFD+INH for 1 month. In Example 3, mice were maintained on the HFD (n=8) or HFD+INH (n=8) for 6 months. In Example 4, all mice were placed on the HFD for 3 months; after this time, Group 1 (n=4) was placed on HFD+INH, while Group 2 (n=4) was maintained on HFD.
(§3) Clinical chemistry: Non-fasted blood glucose levels were measured at baseline and monthly using the FREESTYLE® blood glucose monitor (Abbott Laboratories, Abbott Park, Ill., U.S.A.) which was calibrated per manufacturer's instruction prior to use. All measurements were taken from 4-5 pm. At sacrifice, blood was collected by retro-orbital bleed and serum was isolated. Serum concentrations of triglycerides and total cholesterol were measured using an automatic blood chemical analyzer (Johnson & Johnson, New Brunswick, N.J., U.S.A.) by the University of North Carolina at Chapel Hill Animal Clinical Chemistry and Gene Expression Laboratories Core.
(§4) Body composition analysis: On the day of analysis, mice were weighed, anaesthetized with 2-3% isofluorane, and body composition was determined with a PIXIMUS II™ Mouse Densitometer (GE Medical Systems, distributed by Faxitron X-Ray Corporation, Wheeling, Ill., U.S.A.) using software versions 1.46 and 2.10. These measurements were taken at baseline and monthly during the diet studies. The Dual-energy X-ray absorptiometry (DEXA) method of determining body composition and body fat has been validated in lean and obese mice (Brommage (2003) J Physiol Endocrinol Metab 285: E454-459).
(§5) Statistical analysis: Results are expressed as mean+/−STD. A two-sided unpaired student's t-test was used for preliminary statistical analysis.
FIGS. 9-12 depict the results of C57BL/6 male mice exposed either to a high fat diet (HFD; […]) or the HFD base diet plus the EGFR small molecule inhibitor AG1478 (144 ppm) for about 1 month. The mice were approximately 6 weeks old when started on the dietary study. Male littermates were housed together, so the data are shown as the mean per cage. There is an n of […] for the mice on the HFD+inhibitor (INH), with two test groups of 6 (HFD+INH1 and HFD+INH2) and an n of 4 for the HFD cage.

In experiment [2] the target is T1, EGFR. The experiment in a line: High fat diet with or without AG1478 for 6 months, B6 male mice (Example 3). Here is the method: as §1, §2, §3, §4, §5
In order to determine if the short-term effects on weight gain due to the inhibitor action were applicable over a longer time period, the experiments of Example 2 were extended over six months.
Baseline measurements (body weights, blood glucose, and percent body fat) were taken of 2-month-old male C57 BL/6J (B6) mice which were then housed individually and randomly assigned to receive either HFD or HFD+Inhibitor A (AG 1478). Measurements were again assessed at 1, 2 and 6 months of treatment. All mice were sacrificed at month 6. At sacrifice, blood was collected for clinical chemistry. Heart, liver and fat depots were also dissected and weighed. A two-sided unpaired student's t-test was used for preliminary statistical analysis.

In experiment [3] the target is T1, EGFR. The experiment can be described thus: Already obese B6 male mice on HFD switched to HFD+INH (Example 4). The conditions noted are these: n=4 per group. On the procedure:
as §1, §2, §3, §4, §5
In order to assess whether EGFR inhibitors can effect weight loss or stasis in an already obese subject, obese mice were administered an EGFR inhibitor and body mass and chemistry measurements made over time while maintaining a HFD. Specifically, baseline measurements were taken of 2 month-old male B6 mice, which were then housed individually and placed on a HFD for 2 months. Body weights, blood glucose, and percent body fat were assessed at this time point, and mice were randomly assigned to two groups. Group 1 (Grp1) was continuously fed the HFD, while Group 2 (Grp2) was switched to the HFD+INH after the initial two months. Measurements were again assessed at 1 and 3 months after the diet switch (experimental month 3 and 5). All mice were sacrificed at month 5. At sacrifice, blood was collected for clinical chemistry and heart, liver and fat depots were dissected and weighed. A two-sided unpaired student's t-test was used for preliminary statistical analysis.

The mark [4] stands for this setting: HFD+inhibitor A vs HFD alone, six months, n=8 per group, FIG. 14.
The mark [5] stands for this setting: plasma after 6 months, 7-8 mice per group, HFD+Inhibitor A vs HFD, FIG. 17.
Where [6] appears, read: between treatment groups at sacrifice (month 5), FIG. 20B.
[7] abbreviates: between treatment groups, FIG. 21.

T1 sequence (Q01279 25-1210): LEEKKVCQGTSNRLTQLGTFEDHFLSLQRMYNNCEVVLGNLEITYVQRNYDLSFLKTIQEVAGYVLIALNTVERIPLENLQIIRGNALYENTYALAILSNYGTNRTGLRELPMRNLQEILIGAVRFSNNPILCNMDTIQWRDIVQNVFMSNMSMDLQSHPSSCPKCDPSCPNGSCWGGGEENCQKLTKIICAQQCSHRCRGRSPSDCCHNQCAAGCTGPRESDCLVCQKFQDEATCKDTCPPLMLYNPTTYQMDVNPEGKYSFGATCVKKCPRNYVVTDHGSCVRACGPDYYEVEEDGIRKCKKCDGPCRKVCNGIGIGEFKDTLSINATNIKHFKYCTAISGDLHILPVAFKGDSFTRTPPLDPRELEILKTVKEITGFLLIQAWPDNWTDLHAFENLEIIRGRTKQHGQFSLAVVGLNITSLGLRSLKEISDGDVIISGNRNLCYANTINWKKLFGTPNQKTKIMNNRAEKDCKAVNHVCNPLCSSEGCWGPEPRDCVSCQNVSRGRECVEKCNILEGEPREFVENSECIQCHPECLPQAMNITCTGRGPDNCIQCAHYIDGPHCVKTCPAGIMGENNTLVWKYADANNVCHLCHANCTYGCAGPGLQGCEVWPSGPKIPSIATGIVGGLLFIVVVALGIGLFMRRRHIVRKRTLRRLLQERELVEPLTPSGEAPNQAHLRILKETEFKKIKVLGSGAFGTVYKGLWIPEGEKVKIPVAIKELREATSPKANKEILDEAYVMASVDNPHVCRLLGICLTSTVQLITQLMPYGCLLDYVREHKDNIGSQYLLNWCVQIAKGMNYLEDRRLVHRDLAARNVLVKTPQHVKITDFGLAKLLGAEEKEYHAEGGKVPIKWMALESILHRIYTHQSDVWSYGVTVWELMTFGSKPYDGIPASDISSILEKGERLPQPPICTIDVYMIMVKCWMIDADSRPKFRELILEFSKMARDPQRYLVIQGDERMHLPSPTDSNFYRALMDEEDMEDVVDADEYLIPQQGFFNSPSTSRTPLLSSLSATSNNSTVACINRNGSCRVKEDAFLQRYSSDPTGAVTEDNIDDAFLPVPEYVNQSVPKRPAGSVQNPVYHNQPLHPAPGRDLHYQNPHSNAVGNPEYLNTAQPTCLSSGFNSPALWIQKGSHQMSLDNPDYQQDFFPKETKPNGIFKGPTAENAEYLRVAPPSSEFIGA

`COc1cc2ncnc(Nc3cccc(Cl)c3)c2cc1OC` [AG1478, 4-(3-Chloroanillino)-6,7-dimethoxyquinazoline]: the “accumulation of adipose tissue (percent body fat by DEXA)” value at EGFR [1] (about 1 month) is given as “reduction in adipose tissue accumulation”. Further, the “accumulation of adipose tissue (percent body fat by DEXA)” value at EGFR [1] (about 1 month, listed as AG 1478) is given as “successfully inhibited the accumulation of adipose tissue”. Also, the body weight gain result at EGFR [1] (HFD+INH vs HFD control mice, one month, FIG. 11) is “gained less body weight”. On EGFR [1] (HFD+INH vs HFD, about 1 month, estimated from total food remaining per day, FIG. 10), the “food consumption per mouse per day” value is recorded as “no significant difference”. Further, the “body weight (BW)” value on EGFR [2] (B6 male mice, HFD+inhibitor A vs HFD alone, 6 months, n=8 per group, FIG. 13) is “significantly decreased”. At EGFR [2] (B6 male mice, HFD+inhibitor A vs HFD alone, 6 months, n=8 per group, p<0.001, FIG. 13), the “percent body fat as assessed by DEXA” value is recorded as “significantly decreased”. In addition, on EGFR [2] (setting [4]), the fat mass result is on record as “decreased” and the lean body mass result was “no change”. Also, at EGFR [2] (after 6 months, HFD+Inhibitor A vs HFD, FIG. 16), the gross heart weight result is recorded as “no significant differences”. For the same compound, the gross liver weight entry at EGFR [2] (after 6 months, HFD+Inhibitor A vs HFD, p<0.02, FIG. 16) is given as “significantly reduced”. Further, the “fat mass in the four major fat depots (intraperitoneal, intrascapular, kidney, perigonadal)” value at EGFR [2] (dissection after 6 months, HFD+Inhibitor A vs HFD, FIG. 15) is listed as “decreased fat mass in all four major fat depots”. Also, at EGFR [2] (setting [5]), the total cholesterol level entry was “significantly lower” and the triglyceride level result is given as “significantly lower”. Moreover, on EGFR [3] (Group 2 (HFD+Inhibitor A) vs Group 1 (HFD), after 1 and 3 months on HFD+Inhibitor A, p<0.02, FIG. 18), the “percent increase in BW relative to BW at 2 months on HFD” value was “significantly lower”. At EGFR [3] (Group 2 vs Group 1, after 3 months on HFD+Inhibitor A, p<0.02, FIG. 19), the “percent increase in BF (H), body fat by DEXA relative to time of diet change” value is “significantly lower”. Also, at EGFR [3] (between treatment groups at sacrifice (month 5), FIG. 20A), the fat depot weights result was “No significant differences”. Further, at EGFR [3] (setting [6]), the heart weight result is “No significant differences” and the liver weight entry is “No significant differences”. Further, on EGFR [3] (setting [7]), the blood glucose level entry is reported as “no significant differences”, the total cholesterol level result is reported as “no significant differences” and the triglyceride level entry is reported as “no significant differences”.
